# What was measured:
# KDM5B = target: T1, KDM5B (Homo sapiens, UniProt Q9UGL1); experiment: KDM5B inhibition, enzyme immunoprecipitated from cells; format: biochemical
# T1 construct: magnetic beads were used to immunoprecipitate the respective enzymes from 10^8 cells; endogenous in cells
# Text: (§1) In mammalian cells, the KDM5 family consists of four members, namely, KDM5A (known as JARID1A), KDM5B (known as JARID1B or PLU1), KDM5C (JARID1C), and KDM5D (JARID1D or SMCY). […] Next, the inventors tested four KDM chemical inhibitors. […] The inventors detected the induction of OCT4, SOX2, and E-Cadherin expression in JIB-04-treated HFs (FIG. 18D).
# (§2) Epiquik histone demethylase (H3K4 specific) activity/inhibition assay kit (Epigentek, Biocat, Germany) was used to measure the protective effect of O4I3 and zolpidem on the methylation of H3K4. Their inhibitory effects on LSD1, KDM5s, and KDM4 were determined using Epigenase jarid demethylase activity/inhibition assay kit, Epigenase JMJD2 demethylase activity/inhibition assay kit and EpiQuik histone demethylase LSD1 activity/inhibition assay kit (Epigentek, Biocat, Germany). The total nuclear extraction was used according to manufacturer's instructions. For measuring KDM5A, KDM5B, KDM5C, and KDM5D activity, magnetic beads were used to immunoprecipitate the respective enzymes from 10^8 cells according to the manufacturer's instructions (Cell Signaling Technologies).
# human fibroblasts = experiment: qRT-PCR of reprogramming associated genes in human fibroblasts; format: cell-based; conditions: human fibroblasts, O4I3 0.5 μM
# Description: Analyzing the effects of O4I3 on human fibroblasts, the activation of reprogramming associated genes, including an about 10-fold induction of Oct4, Nanog and Lin28, and an about 100-fold increase of Sox2 and E-Cadherin mRNA levels was detected. In particular, expression of several essential genes for reprogramming is equal to those in pluripotent stem cells, such as Esrrb, FGF2 and Sall4 (FIG. 12).
# (§3) Quantitative reverse-transcription real-time-PCR was performed using a Light Cycler 96 (Roche, Germany) following the manufacturer's protocol. Briefly, total RNA was isolated from cells using TRIzol (Qiagen, Germany) or NucleoSpin®RNA Plus (Macherey-Nagel, Germany). The same amount of RNA was used to reverse-transcriptional synthesize cDNA by using random primers ProtoScript® First Strand cDNA Synthesis Kit (NEB, Germany). qPCR was performed using the SYBR Green PCR master mix (qPCRBIO SyGreen Mix Lo-Rox, Nippon Genetics, Germany) and the primer pairs indicated below (MWG, Eurofins, Germany). Actin was used as an endogenous control. Data were normalized to the value of untreated cells showing the mean±SD of quadruplicates and are representative of at least three independent experiments.
# iPSCs = experiment: qRT-PCR gene expression in iPSCs; format: cell-based, human; conditions: 50 nM, 24 h
# Description: A) O4I3 promoted the viability of hiPSCs in single cell expansion. B) Homogeneous expression of […] and Oct4 up to passage (p) 30 in hiPSCs treated with 50 nM O4I3 analyzed by FACS C) Relative fold changes to non-treatment in hiPSCs treated with O4I3 (50 nM) for 24 h analyzed by qRT-PCR. D) Gene expression profiling analysis of functional annotation enrichment for categories related to pluripotency, development and homeostasis in O4I3-treated iPSCs for 24 h. Data are represented as mean±SD from at least 3 independent experiments ***: p<0.001; **: p<0.01; *: p<0.05.
# as §3
# KDM5 = KDM5 demethylase inhibition, whole-cell nuclear extraction; format: biochemical; conditions: whole-cell nuclear extraction
# Text: (§4) HMT and HDM are two major classes of enzymes, contributing to the regulation of histone methylation. Lysine-specific demethylase 1 (LSD1) and histone lysine demethylase 5 (KDM5, also known as JARID1) majorly catalyze demethylation of H3K4. A few KDM5 chemical inhibitors have been reported to inhibit demethylation of H3K4, leading to an increase of global methylated H3K4 in various cell types. The inventors tested the inhibitory effect of O4I3 on LSD1 and KDM5. KDM4 (also known as JMJD2), the HDM of H3K9 and H3K36, was also included.
# as §2
# KDM5A = target: T2, KDM5A (Homo sapiens, UniProt P29375); experiment: KDM5A inhibition, enzyme immunoprecipitated from cells; format: biochemical
# T2 construct: magnetic beads were used to immunoprecipitate the respective enzymes from 10^8 cells; endogenous in cells
# T2 sequence (P29375 whole entry): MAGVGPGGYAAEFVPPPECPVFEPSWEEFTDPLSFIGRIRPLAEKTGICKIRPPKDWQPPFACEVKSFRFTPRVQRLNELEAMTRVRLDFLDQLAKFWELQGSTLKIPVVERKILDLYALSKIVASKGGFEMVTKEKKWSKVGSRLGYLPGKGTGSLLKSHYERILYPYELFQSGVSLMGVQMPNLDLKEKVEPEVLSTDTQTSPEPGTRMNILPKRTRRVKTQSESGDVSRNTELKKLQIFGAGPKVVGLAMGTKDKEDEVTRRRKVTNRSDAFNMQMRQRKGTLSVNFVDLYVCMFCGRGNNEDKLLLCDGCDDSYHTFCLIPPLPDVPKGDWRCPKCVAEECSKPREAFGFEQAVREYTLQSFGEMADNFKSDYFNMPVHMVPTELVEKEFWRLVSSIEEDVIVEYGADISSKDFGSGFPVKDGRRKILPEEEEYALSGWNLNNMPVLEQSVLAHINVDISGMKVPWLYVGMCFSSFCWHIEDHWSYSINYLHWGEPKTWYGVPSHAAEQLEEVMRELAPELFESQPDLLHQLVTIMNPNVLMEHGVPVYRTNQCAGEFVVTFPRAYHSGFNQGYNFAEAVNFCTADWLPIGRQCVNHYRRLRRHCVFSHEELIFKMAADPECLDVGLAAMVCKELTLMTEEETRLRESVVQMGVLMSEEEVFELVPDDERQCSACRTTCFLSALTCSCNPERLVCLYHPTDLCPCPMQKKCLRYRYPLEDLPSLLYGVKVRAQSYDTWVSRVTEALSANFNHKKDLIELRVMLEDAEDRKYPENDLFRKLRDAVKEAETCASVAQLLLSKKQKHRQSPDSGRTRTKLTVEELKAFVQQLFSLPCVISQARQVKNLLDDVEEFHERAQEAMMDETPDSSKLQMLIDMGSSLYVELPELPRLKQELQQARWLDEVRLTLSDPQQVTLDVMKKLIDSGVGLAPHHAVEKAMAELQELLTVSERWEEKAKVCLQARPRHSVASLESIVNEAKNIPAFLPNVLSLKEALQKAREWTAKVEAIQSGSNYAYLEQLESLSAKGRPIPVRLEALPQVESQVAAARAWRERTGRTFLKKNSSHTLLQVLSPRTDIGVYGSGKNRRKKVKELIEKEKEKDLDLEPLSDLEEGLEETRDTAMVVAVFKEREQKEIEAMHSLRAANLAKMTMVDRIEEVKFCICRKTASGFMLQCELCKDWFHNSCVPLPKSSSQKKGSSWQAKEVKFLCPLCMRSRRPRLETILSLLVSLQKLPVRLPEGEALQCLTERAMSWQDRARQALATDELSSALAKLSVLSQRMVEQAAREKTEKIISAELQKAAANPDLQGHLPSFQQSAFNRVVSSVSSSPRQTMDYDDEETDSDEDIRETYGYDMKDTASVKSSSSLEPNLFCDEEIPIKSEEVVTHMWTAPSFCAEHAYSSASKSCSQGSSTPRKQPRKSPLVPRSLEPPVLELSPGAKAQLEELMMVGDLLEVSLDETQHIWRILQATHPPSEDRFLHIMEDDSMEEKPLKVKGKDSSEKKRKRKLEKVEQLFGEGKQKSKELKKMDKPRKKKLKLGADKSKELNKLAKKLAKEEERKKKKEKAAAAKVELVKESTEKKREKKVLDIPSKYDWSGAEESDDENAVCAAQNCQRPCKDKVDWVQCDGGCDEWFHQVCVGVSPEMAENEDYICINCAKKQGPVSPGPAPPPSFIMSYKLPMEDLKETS
# Text: as §1, §2
# hiPSCs = experiment: iPSC single cell expansion, viability by MTT assay; format: cell-based, human; conditions: versus absence of O4I3
# Description: Since O4I3 induced sustainable expression of Oct4 and Nanog, the inventors questioned if it supports iPSC self-renewal in single cell expansion. Therefore, the viability of iPSCs, after replating Accutase®-dissociated single iPSCs, was tested in the presence or absence of O4I3. Rocki (Y-27632) was used for the first 24 h to increase iPSCs survival. A nearly 300% higher viability in cells treated with O4I3 (1 nM) was observed. Using 50 nM of O4I3 even 400% increase was observed (FIG. 2A). FACS analysis confirmed homologous expression of iPSCs markers, Tra-1-81 and Oct4, for at least 30 passages (FIG. 2B).
# iPSC single cell expansion was performed according to a well-established protocol known in the art (Watanabe et al, Nat Biotechnol, 2007, 25(6), 681-6). Briefly, iPSCs were dissociated with Accutase® as single cell suspension and re-seeded in a Geltrex-coated 96-well plate in the presence of Rock inhibitor for the first 24 h in combination with/without O4I3. Cell viability was performed in MTT assay as disclosed elsewhere (Cheng et al, Mol Oncol. 2016 June; 10(6):806-24).
# LSD1 = target: T3, LSD1 (Homo sapiens, UniProt O60341); experiment: LSD1 demethylase inhibition, nuclear extraction; format: biochemical; conditions: even at a concentration of 100 mM
# T3 construct: using the whole-cell nuclear extraction; endogenous in cells
# Text: as §4, §2
# KDM4 [1] = experiment: KDM4 (JMJD2) demethylase inhibition, nuclear extraction; format: biochemical
# Text: as §4, §2
# KDM4 [2] = target: T4, KDM4; experiment: as above; format: biochemical; conditions: whole-cell nuclear extraction
# T4 construct: other: whole-cell nuclear extraction; other: micromolar concentrations
# Text: as §4, §2
# Oct4 = experiment: Luciferase reporter assay in NCCIT-Oct4 cells; format: cell-based, human; conditions: O4I3 1 nM, a 10,000-fold lower concentration; both reporter cell lines
# T1 sequence (Q9UGL1 whole entry): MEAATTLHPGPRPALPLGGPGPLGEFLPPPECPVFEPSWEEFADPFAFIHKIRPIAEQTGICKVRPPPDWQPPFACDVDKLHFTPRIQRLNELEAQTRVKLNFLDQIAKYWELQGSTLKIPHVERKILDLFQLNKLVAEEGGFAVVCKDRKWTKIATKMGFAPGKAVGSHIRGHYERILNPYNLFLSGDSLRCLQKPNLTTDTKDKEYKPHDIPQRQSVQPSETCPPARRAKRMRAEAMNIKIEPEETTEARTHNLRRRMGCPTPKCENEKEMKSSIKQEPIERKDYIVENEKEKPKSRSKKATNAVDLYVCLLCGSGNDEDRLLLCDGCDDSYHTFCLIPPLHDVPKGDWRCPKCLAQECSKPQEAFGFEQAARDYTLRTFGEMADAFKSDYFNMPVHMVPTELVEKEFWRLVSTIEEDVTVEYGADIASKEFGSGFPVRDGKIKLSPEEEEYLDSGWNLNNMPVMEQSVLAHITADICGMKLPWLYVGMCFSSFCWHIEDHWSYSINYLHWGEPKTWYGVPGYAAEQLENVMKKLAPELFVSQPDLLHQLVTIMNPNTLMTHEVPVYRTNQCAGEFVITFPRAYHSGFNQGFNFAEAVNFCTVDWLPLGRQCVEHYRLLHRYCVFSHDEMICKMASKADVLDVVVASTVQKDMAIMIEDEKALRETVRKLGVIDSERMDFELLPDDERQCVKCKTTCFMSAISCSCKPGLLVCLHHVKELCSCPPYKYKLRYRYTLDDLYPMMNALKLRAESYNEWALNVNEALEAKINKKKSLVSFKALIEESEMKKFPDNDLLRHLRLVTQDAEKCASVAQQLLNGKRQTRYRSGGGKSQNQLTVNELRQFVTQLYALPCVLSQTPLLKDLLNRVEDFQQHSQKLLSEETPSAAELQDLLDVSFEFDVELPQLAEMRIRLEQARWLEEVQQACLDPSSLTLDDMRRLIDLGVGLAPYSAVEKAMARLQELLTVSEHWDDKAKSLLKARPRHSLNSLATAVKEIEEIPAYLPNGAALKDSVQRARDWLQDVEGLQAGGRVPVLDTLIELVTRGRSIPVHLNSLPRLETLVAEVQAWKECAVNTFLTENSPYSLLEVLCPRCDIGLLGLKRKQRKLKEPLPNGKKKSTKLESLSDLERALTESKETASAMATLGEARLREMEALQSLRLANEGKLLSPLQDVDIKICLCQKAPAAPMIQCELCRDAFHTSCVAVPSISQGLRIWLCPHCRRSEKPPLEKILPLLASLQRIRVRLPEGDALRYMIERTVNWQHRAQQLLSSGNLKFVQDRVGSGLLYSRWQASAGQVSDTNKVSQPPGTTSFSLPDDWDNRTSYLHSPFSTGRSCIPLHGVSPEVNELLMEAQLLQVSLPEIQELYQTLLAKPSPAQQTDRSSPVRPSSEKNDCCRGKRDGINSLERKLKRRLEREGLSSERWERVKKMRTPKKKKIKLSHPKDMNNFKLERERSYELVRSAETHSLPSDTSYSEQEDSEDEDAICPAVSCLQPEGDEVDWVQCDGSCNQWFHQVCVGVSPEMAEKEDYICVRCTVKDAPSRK
compound,measurement,setting,value
"Cc1ccc(-c2cn3cc(C)ccc3n2)cc1 [O4I3, 6-methyl-2-(p-tolyl)imidazo[1,2-a]pyridine]","IC50 less potent than for KDM5A, KDM5B",KDM5B,"1,000 fold"
same,increase of E-Cadherin mRNA levels,human fibroblasts,about 100 fold
same,increase of Sox2 mRNA levels,human fibroblasts,about 100 fold
same,induction of Lin28 mRNA,human fibroblasts,about 10 fold
same,induction of Nanog mRNA,human fibroblasts,about 10 fold
same,induction of Oct4 mRNA,human fibroblasts,about 10 fold
same,expression of pluripotency-associated genes,iPSCs,stabilized or slightly increased
same,IC50,KDM5,0.79 nM
same,IC50,KDM5A,0.19 nM
same,higher viability of iPSCs in single cell expansion,hiPSCs; 1 nM,~300%
same,higher viability of iPSCs in single cell expansion,hiPSCs; 50 nM,400%
same,inhibitory effect on LSD1,LSD1,hardly detected the inhibitory effect
same,less potency on KDM4 than on KDM5,KDM4 [1],500 fold
same,IC50,KDM4 [2],249 nM
same,induction versus zolpidem at 10 μM,Oct4,comparable induction
